# Laboratory results as given in PubChem BioAssay AID1963837 (Molecular Pharmacology Branch, DTP, NCI, 2024).
# System: 843126-344-R-J1-PDC complex spheroid viability
# Assay: Anticancer human tumor 843126-344-R-J1-PDC patient-derived melanoma cell line growth inhibition [POLQ]
# Conditions: for IC50: curve of first compound; for viability, T/C: stronger effect = lower value
# Procedure, shortened: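 Patient-derived tumour cells were co-cultured with HUVEC and mesenchymal stem cells as multicellular spheroids at 37 °C. They were treated with POLQ inhibitors (novobiocin, ART-558, RP6685) alone or combined with other agents. Top concentrations were at or near clinical Cmax (otherwise 10 microM; SN-38 at 1 microM), decreasing in half-log steps.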
# [1] = second compound 0.0316 µM, first compound 0.0316 µM
# [2] = second compound 0.0316 µM, first compound 0.1 µM
# [3] = second compound 0.0316 µM, first compound 0.316 µM
# [4] = second compound 0.0316 µM, first compound 1 µM
# [5] = second compound 0.1 µM, first compound 0.0316 µM
# [6] = second compound 0.1 µM, first compound 0.1 µM
# [7] = second compound 0.1 µM, first compound 0.316 µM
# [8] = second compound 0.1 µM, first compound 1 µM
# [9] = second compound 0.316 µM, first compound 0.0316 µM
# [10] = second compound 0.316 µM, first compound 0.1 µM
# [11] = second compound 0.316 µM, first compound 0.316 µM
# [12] = second compound 0.316 µM, first compound 1 µM
# [13] = second compound 1 µM, first compound 0.0316 µM
# [14] = second compound 1 µM, first compound 0.1 µM
# [15] = second compound 1 µM, first compound 0.316 µM
# [16] = second compound 1 µM, first compound 1 µM
# [17] = second compound 3.16 µM, first compound 0.0316 µM
# [18] = second compound 3.16 µM, first compound 0.1 µM
# [19] = second compound 3.16 µM, first compound 0.316 µM
# [20] = second compound 3.16 µM, first compound 1 µM
# [21] = second compound 10 µM, first compound 0.0316 µM
# [22] = second compound 10 µM, first compound 0.1 µM
# [23] = second compound 10 µM, first compound 0.316 µM
# [24] = second compound 10 µM, first compound 1 µM
# [25] = second compound 0.0316 µM, first compound 0.00316 µM
# [26] = second compound 0.0316 µM, first compound 0.01 µM
# [27] = second compound 0.1 µM, first compound 0.00316 µM
# [28] = second compound 0.1 µM, first compound 0.01 µM
# [29] = second compound 0.316 µM, first compound 0.00316 µM
# [30] = second compound 0.316 µM, first compound 0.01 µM
# [31] = second compound 1 µM, first compound 0.00316 µM
# [32] = second compound 1 µM, first compound 0.01 µM
# [33] = second compound 3.16 µM, first compound 0.00316 µM
# [34] = second compound 3.16 µM, first compound 0.01 µM
# [35] = second compound 10 µM, first compound 0.00316 µM
# [36] = second compound 10 µM, first compound 0.01 µM
# 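For viability, T/C in this document: spheroids exposed to drugs for seven days before readout.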
compound,measurement,setting,value
Nc1ccn(C2OC(CO)C(O)C2(F)F)c(=O)n1 (stereo unspecified) + COC1C(OC(N)=O)C(O)C(Oc2ccc3c(O)c(NC(=O)c4ccc(O)c(CC=C(C)C)c4)c(=O)oc3c2C)OC1(C)C,IC50,second compound 0.0316 µM,< 0.0316 µM
same,IC50,second compound 0.1 µM,< 0.0316 µM
same,IC50,second compound 0.316 µM,< 0.0316 µM
same,IC50,second compound 1 µM,< 0.0316 µM
same,IC50,second compound 3.16 µM,< 0.0316 µM
same,IC50,second compound 10 µM,< 0.0316 µM
same,"viability, T/C",[1],33.5%
same,"viability, T/C",[2],34.9%
same,"viability, T/C",[3],36.8%
same,"viability, T/C",[4],36.1%
same,"viability, T/C","second compound 0.0316 µM, first compound 3.16 µM",41.7%
same,"viability, T/C","second compound 0.0316 µM, first compound 10 µM",34.7%
same,"viability, T/C",[5],41.3%
same,"viability, T/C",[6],36.5%
same,"viability, T/C",[7],34.9%
same,"viability, T/C",[8],37.8%
same,"viability, T/C","second compound 0.1 µM, first compound 3.16 µM",37.3%
same,"viability, T/C","second compound 0.1 µM, first compound 10 µM",33.7%
same,"viability, T/C",[9],38.6%
same,"viability, T/C",[10],36.4%
same,"viability, T/C",[11],39.4%
same,"viability, T/C",[12],32.9%
same,"viability, T/C","second compound 0.316 µM, first compound 3.16 µM",36.9%
same,"viability, T/C","second compound 0.316 µM, first compound 10 µM",33.4%
same,"viability, T/C",[13],38.9%
same,"viability, T/C",[14],36%
same,"viability, T/C",[15],39.3%
same,"viability, T/C",[16],31.7%
same,"viability, T/C","second compound 1 µM, first compound 3.16 µM",40%
same,"viability, T/C","second compound 1 µM, first compound 10 µM",35.7%
same,"viability, T/C",[17],43.5%
same,"viability, T/C",[18],34.6%
same,"viability, T/C",[19],38%
same,"viability, T/C",[20],30.8%
same,"viability, T/C","second compound 3.16 µM, first compound 3.16 µM",39.5%
same,"viability, T/C","second compound 3.16 µM, first compound 10 µM",31.2%
same,"viability, T/C",[21],38.4%
same,"viability, T/C",[22],37.8%
same,"viability, T/C",[23],38%
same,"viability, T/C",[24],32.8%
same,"viability, T/C","second compound 10 µM, first compound 3.16 µM",32%
same,"viability, T/C","second compound 10 µM, first compound 10 µM",32%
C=CCn1c(=O)c2cnc(Nc3ccc(N4CCN(C)CC4)cc3)nc2n1-c1cccc(C(C)(C)O)n1 + COC1C(OC(N)=O)C(O)C(Oc2ccc3c(O)c(NC(=O)c4ccc(O)c(CC=C(C)C)c4)c(=O)oc3c2C)OC1(C)C,IC50,second compound 0.0316 µM,> 1 µM
same,IC50,second compound 0.1 µM,> 1 µM
same,IC50,second compound 0.316 µM,> 1 µM
same,IC50,second compound 1 µM,> 1 µM
same,IC50,second compound 3.16 µM,> 1 µM
same,IC50,second compound 10 µM,> 1 µM
same,"viability, T/C",[25],114%
same,"viability, T/C",[26],84%
same,"viability, T/C",[1],86.6%
same,"viability, T/C",[2],81.5%
same,"viability, T/C",[3],89.4%
same,"viability, T/C",[4],80%
same,"viability, T/C",[27],93.7%
same,"viability, T/C",[28],90.4%
same,"viability, T/C",[5],99.5%
same,"viability, T/C",[6],82.8%
same,"viability, T/C",[7],85.7%
same,"viability, T/C",[8],70.6%
same,"viability, T/C",[29],87%
same,"viability, T/C",[30],115%
same,"viability, T/C",[9],98.8%
same,"viability, T/C",[10],88.5%
same,"viability, T/C",[11],81.2%
same,"viability, T/C",[12],86.6%
same,"viability, T/C",[31],78.4%
same,"viability, T/C",[32],90.3%
same,"viability, T/C",[13],86.6%
same,"viability, T/C",[14],85.1%
same,"viability, T/C",[15],84.2%
same,"viability, T/C",[16],76.9%
same,"viability, T/C",[33],83.6%
same,"viability, T/C",[34],106%
same,"viability, T/C",[17],98.5%
same,"viability, T/C",[18],72.7%
same,"viability, T/C",[19],81.7%
same,"viability, T/C",[20],84.2%
same,"viability, T/C",[35],89.8%
same,"viability, T/C",[36],97.4%
same,"viability, T/C",[21],94.8%
same,"viability, T/C",[22],102%
same,"viability, T/C",[23],91.9%
same,"viability, T/C",[24],65%
C=CCn1c(=O)c2cnc(Nc3ccc(N4CCN(C)CC4)cc3)nc2n1-c1cccc(C(C)(C)O)n1 + Nc1ccc(C#CCN(C(=O)Cc2ncc(C(F)(F)F)cc2C(F)(F)F)c2ccc(F)cc2)nn1,IC50,second compound 0.0316 µM,> 1 µM
same,IC50,second compound 0.1 µM,> 1 µM
same,IC50,second compound 0.316 µM,> 1 µM
same,IC50,second compound 1 µM,> 1 µM
same,IC50,second compound 3.16 µM,> 1 µM
same,IC50,second compound 10 µM,> 1 µM
same,"viability, T/C",[25],93.9%
same,"viability, T/C",[26],81.2%
same,"viability, T/C",[1],98.9%
same,"viability, T/C",[2],110%
same,"viability, T/C",[3],101%
same,"viability, T/C",[4],81.9%
same,"viability, T/C",[27],91.9%
same,"viability, T/C",[28],92.1%
same,"viability, T/C",[5],104%
same,"viability, T/C",[6],85.9%
same,"viability, T/C",[7],86.5%
same,"viability, T/C",[8],77.6%
same,"viability, T/C",[29],95.1%
same,"viability, T/C",[30],90.7%
same,"viability, T/C",[9],98.8%
same,"viability, T/C",[10],105%
same,"viability, T/C",[11],93.6%
same,"viability, T/C",[12],72%
same,"viability, T/C",[31],106%
same,"viability, T/C",[32],80.8%
same,"viability, T/C",[13],87.7%
same,"viability, T/C",[14],90.4%
same,"viability, T/C",[15],85.4%
same,"viability, T/C",[16],86.4%
same,"viability, T/C",[33],91.2%
same,"viability, T/C",[34],84.2%
same,"viability, T/C",[17],92.5%
same,"viability, T/C",[18],106%
same,"viability, T/C",[19],75%
same,"viability, T/C",[20],59.8%
same,"viability, T/C",[35],94.1%
same,"viability, T/C",[36],83.7%
same,"viability, T/C",[21],84.5%
same,"viability, T/C",[22],91.9%
same,"viability, T/C",[23],79.1%
same,"viability, T/C",[24],74.5%
